# Where “and” joins values, the source holds several entries; their conditions need not be identical. Identical values can stand only once. Like-named read-outs stand apart in the source and are kept apart here.
# Legend:
# Puccinia recondita = assay: wheat brown rust, field trial
# Description: Test plants (variety: Nourin 61 gou) were sowed and grown until heading stage. D-Tagatose was diluted to 5% with distilled water and sprayed thoroughly on the plants two times every 8 days. Three days after the first spraying of the dilution, wheat leaves inoculated with wheat fusarium blight (Puccinia recondita) were kept in the test plants. The disease severity of the test plants was observed 21 days after last spraying and the effectiveness of test sample was judged. Tests were carried out in duplicate. One plot of each test was 5 m^2. The disease severity of the test plants was judged in accordance with the following criteria. The preventive value was calculated from the degree of disease severity.
# Peronospora parasitica = assay: cabbage downy mildew, pot test: preventive effect; details: for Preventive value: inoculated 3 days after spraying
# Description: Test plants (cabbage, variety: Shikidori) were seeded and grown until 4 leaves stage. […] Three days after spraying, a suspension containing condia of cucumber downy mildew (Peronospora parasitica) was inoculated by spraying on test plants. Seven days after inoculation the disease severity of the test plants was observed and the effectiveness of test sample was judged. Tests were carried out using two plants for each test set and the disease severity of test plants was judged in accordance with the following criteria. The preventive value was calculated from the degree of disease severity as in Example 1.
# Sphaerotheca fuliginea = assay: cucumber powdery mildew, field test; details: for D.D.S (Degree of disease severity), Av / P.V. (Preventive value), Av / n/N × 100, Av: average of plots
# Description: Test plants (cucumber, variety: Ancor) were grown until approximately 10 leaves. […] After the first spraying of the dilution, the test plants were inoculated with condia of suspension of Sphaerotheca fuliginea. The disease severity of the test plants was observed 7 days after the last spraying, and the effectiveness of test sample was judged. Tests were carried out in triplicate using 8 plants per each test. The disease severity of the test plants was judged in accordance with the following criteria. The preventive value was calculated from the degree of disease severity.
# (§1) 0 (No lesion) 1 (Lesion area was not more than 5% of the leaf area) 2 ((Lesion area was 5%-25% of the leaf area) 3 (Lesion area was 25%-50% of the leaf area) 4 (Lesion area was not less than 50% of the leaf area)
# [1] = system: Pseudoperonospora cubensis; details: alone
# Description: Test plants (cucumber, variety: Sagami hanpaku) were seeded and grown until the one true leaf stage. D-tagatose alone was diluted to 5%, 1%, 0.5% and 0.1%, and the combination of D-tagatose and other saccharide were diluted to be 0.5% and 0.5% solution respectively with distilled water, and then 10 ml of the dilution was sprayed on the test plant. Three days after spraying of the solution, a sporangium suspension of Pseudoperonospora cubensis containing 1×10^3/ml were inoculated by spraying on test plants and then put them for 16 hours in an inoculation chamber (20° C. to 23° C.) to promote disease. Seven days after inoculation the disease severity of the test plants was observed and the effectiveness of test sample was judged. Tests were carried out using two plants for each test set and the disease severity of the test plants was judged in accordance with the following criteria. The preventive value was calculated from the degree of disease severity as in example 1.
# Synergistic effect was determined by the Colby's equation below.
# X is the observed effect, in percentage, of the first active ingredient and, and Y is the observed effect, in percentage, of the second active ingredient. E is the effect, in percentage, of the mixture expected from additive contribution of the individual components.
# [2] = system: Pseudoperonospora cubensis; details: Pseudoperonospora cubensis, in Cucumis sativus, 168 h, read-out: Preventive value
# Description: Test plants (cucumber, variety: Sagami hanpaku) were seeded and grown until the one true leaf stage. D-Tagatose was diluted to 5000 ppm and the fungicides were diluted to the concentrations listed in table 14, with distilled water. And then 10 ml of the dilution was sprayed on the test plant. Three days after spraying of the solution, a sporangium suspension of Pseudoperonospora cubensis containing 1×10^3/ml were inoculated by spraying on test plants and then put for 16 hours in an inoculation chamber (20° C. to 23° C.) to promote disease. Seven days after inoculation the disease severity of the test plants was observed and the effectiveness of the test sample was judged. Tests were carried out using two plants for each test set and the disease severity of the test plants was judged in accordance with the following criteria. The preventive value was calculated from the degree of disease severity.
# (§2) 0 (No lesion) 1 (Lesion area was not more than 40%) 2 ((Lesion area was 40%-80%) 3 (Lesion area was not less than 80%)
# Preventive value=100{1−(n/N)} N=disease severity of untreated leaf, n=disease severity of the test leaf Synergistic effect was determined by Colby's equation.
# Plasmopara viticola [3] = details: Plasmopara viticola, 168 h, read-out: Preventive value
# Description: Test plants (variety: Neo Muscat) were seeded and grown until three leaves. D-Tagatose was diluted to 5000 ppm and the fungicides were diluted to the concentrations listed in table 16, with distilled water, and 10 ml of the dilution was sprayed on the plants. Three days after the spraying of the dilution, the plants were infected by spraying a sporangium suspension of Plasmopara viticola containing 1×10^3/ml and then put for 16 hours in an inoculation chamber (20° C. to 23° C.) to promote disease. The disease severity of the test plants was observed 7 days after inoculation, and the effectiveness of test sample was judged.
# [4] = system: Pseudoperonospora cubensis; assay: cucumber downy mildew, field trial; format: in vivo; details: for D.D.S (Degree of disease severity), Av / P.V. (Preventive value), Av / n/N × 100, Av: average of plots; for D.D.S (Degree of disease severity) / P.V. (Preventive value) / n/N × 100 / Disease severity 0: number of leaves / Disease severity 1: number of leaves / Disease severity 2: number of leaves / Disease severity 3: number of leaves / Disease severity 4: number of leaves: per plot (a, b); for Disease severity 0: number of leaves / Disease severity 1: number of leaves / Disease severity 2: number of leaves / Disease severity 3: number of leaves / Disease severity 4: number of leaves: 50 leaves
# Pythium glaminicola = details: for Preventive value: 10 ml soil drench, from percentage of onset area after 2 weeks
# Description: Four germinated rice seeds (variety: Koshihikari) were sowed in a pot (5×5 cm), which contains infected soil with Pythium glaminicola (mycelium 100 g/1 L soil). The pot was drenched with 10 ml of D-tagatose dilution and the seeds were covered with soil. After 2 weeks, the disease severity of the test plants per rice seedling in 25 cm^2 was observed and the effectiveness of test sample was judged. Tests were carried out in duplicate and the preventive value was calculated from percentage of onset area.
# Botrytis cinerea = details: Botrytis cinerea, in Solanum lycopersicum, 168 h, read-out: Preventive value
# Description: Test plants (tomato, variety: Ogata-fukujyu) were seeded and grown until the three leaf stage. D-Tagatose and fungicide were diluted to 10000 ppm and the concentrations liste in table 23, respectively, with distilled water and 10 ml of the dilution was sprayed on the plants. Three days after spraying the solution, condia suspension of Botrytis cinerea were inoculated by spraying on test plants and then put for 16 hours in an inoculation chamber (20° C. to 23° C.) to promote disease. Seven days after inoculation, the disease severity of the test plants was observed and the effectiveness of test sample was judged.
# [5] = system: Pseudoperonospora cubensis; details: Pseudoperonospora cubensis, in Cucumis sativus, 168 h, read-out: Preventive value; remark: listed apart in the source
# Plasmopara viticola [6] = assay: vine downy mildew, field test; details: for D.D.S (Degree of disease severity), Av / P.V. (Preventive value), Av / n/N × 100, Av: average of plots
# Description: Test plants (variety: kyoho) were grown until approximately 10 leaves. […] After the first spraying of the dilution, grape leaves were infected by spraying a sporangium suspension of Plasmopara viticola containing 1×10^3/ml. The disease severity of the test plants was observed 7 days after last spraying, and the effectiveness of test sample was judged. Tests were carried out in triplicate using half of the test plant per each test. The disease severity of the test plants was judged in accordance with the following criteria. The preventive value was calculated from the degree of disease severity.
# as §1
# Pythium aphanidermatum = details: for Preventive value: 10 ml soil drench, from germination rate after 2 weeks
# Description: Five seeds of test plants (cucumber, variety: Sagami hanpaku) were sowed in a pot (5×5 cm), which contains infested soil with Pythium aphanidermatum (mycelium 100 g/1 L soil) and the seeds were covered with the soil. […] After 2 weeks, the disease severity of the test plants was observed and the effectiveness of test sample was judged. Tests were carried out in triplicate using 5 plants for each test set and the preventive value was calculated from the germination rate.
# [7] = system: Pseudoperonospora cubensis; assay: cucumber downy mildew, pot test: preventive effect; details: for Preventive value (3 DAS): inoculated 3 days after spraying; for Preventive value (5 DAS): inoculated 5 days after spraying
# Description: Test plants (cucumber, variety: Sagami hanpaku) were seeded and grown until the one true leaf stage. D-Tagatose was diluted to 5%, 1% and 0.5% with distilled water and then 10 ml of the dilution was sprayed on the test plant. Three or five days after spraying, a sporangium suspension of Pseudoperonospora cubensis containing 1×10^3/ml were inoculated by spraying on test plants and then the plants were put for 16 hours in an incubation chamber (20° C. to 23° C.) to promote disease. Seven days after inoculation the disease severity of the test plants was observed and the effectiveness of test sample was judged. Tests were carried out using two plants for each test set and the disease severity of the test plants was judged in accordance with the following criteria. The preventive value was calculated from the degree of the disease severity.
# as §2
# Preventive value=100{1−(n/N)} N=disease severity of untreated leaf, n=disease severity of the tested leaf
# Sphaerotheca fuligine = assay: cucumber powdery mildew, pot test: preventive effect; details: for Preventive value: inoculated 3 days after spraying
# Description: Test plants (cucumber, variety: Sagami-hanpaku) were seeded and grown until the one true leaf stage. D-tagatose was diluted to 5% and 1% with distilled water and then 10 ml of the dilution was sprayed on the test plant. Three days after spraying, a condia suspension of Sphaerotheca fuligine was inoculated by spraying on test plants. Seven days after inoculation the disease severity of the test plants was observed and the effectiveness of test sample was judged. Tests were carried out using two plants for each test set and the disease severity of the test plants was judged in accordance with the following criteria.
# Phytophthora infestans [8] = assay: whole plant or invertebrate; format: in vivo; details: Phytophthora infestans, in Solanum lycopersicum, 168 h, read-out: Preventive value
# Pyricularia oryze = assay: whole plant or invertebrate; format: in vivo; details: Pyricularia, in Oryza sativa, 168 h, read-out: Preventive value
# [9] = system: Erysiphe graminis f.sp. hordei; details: Blumeria graminis, in Hordeum vulgare, 168 h, read-out: Preventive value
# Description: Test plants (barley, variety: Akashinriki) were seeded and grown until the one leaf stage. D-tagatose and fungicide were diluted to 5000 ppm and the concentrations listed in table 21, respectively, with distilled water and 10 ml of the dilution was sprayed thoroughly on the plants. Three days after spraying, a condia suspension of Erysiphe graminis f.sp. hordei was inoculated by spraying on test plants. 7 days after inoculation the disease severity of the test plants was observed and the effectiveness of test sample was judged.
# Phytophthora infestans [10] = format: in vivo; details: for Preventive value: inoculated 3 days after spraying
# [11] = 50000 ppm, per plot (1, 2), 100 leaves
# [12] = 10000 ppm, per plot (1, 2), 50 leaves
# [13] = 50000 ppm, per plot (1, 2), 50 leaves
# [14] = 10000 ppm, per plot (1-3), 50 leaves
# [15] = 50000 ppm, per plot (1-3), 50 leaves
# [16] = 50000 ppm spray, listed as D-tagatose
smiles,measurement,setting,value
"O=C(CO)[C@@H](O)[C@@H](O)[C@H](O)CO [D-Tagatose, D-tagatose]","D.D.S (Degree of disease severity), Av","Puccinia recondita; 50000 ppm, average of plots",6.1
same,D.D.S (Degree of disease severity),"Puccinia recondita; 50000 ppm, per plot (1, 2)",4.7 and 7.5
same,Leaves number(n) of disease severity 0,Puccinia recondita; [11],76 and 68
same,Leaves number(n) of disease severity 1,Puccinia recondita; [11],22 and 25
same,Leaves number(n) of disease severity 4,Puccinia recondita; [11],0
same,Leaves number(n) of disease severity 5,Puccinia recondita; [11],0
same,Leaves number(n) of disease severity 6,Puccinia recondita; [11],0
same,"P.V. (Preventive value), Av","Puccinia recondita; 50000 ppm, sprayed two times every 8 days, rated 21 days after last spraying",92.5
same,effectiveness in words,Puccinia recondita; field trial,effective enough
same,Preventive value,Peronospora parasitica; 10000 ppm spray,90.1
same,Preventive value,Peronospora parasitica; 50000 ppm spray,95.1
same,effectiveness in words,Peronospora parasitica; foliar spray,effective enough
same,"D.D.S (Degree of disease severity), Av",Sphaerotheca fuliginea; 10000 ppm,5.75
same,"P.V. (Preventive value), Av",Sphaerotheca fuliginea; 10000 ppm,94.0
same,"n/N × 100, Av",Sphaerotheca fuliginea; 10000 ppm,15.0
same,D.D.S (Degree of disease severity),"Sphaerotheca fuliginea; 10000 ppm, per plot (1, 2)",8.00
same,P.V. (Preventive value),"Sphaerotheca fuliginea; 10000 ppm, per plot (1, 2)",96.4 and 91.7
same,Disease severity 0: number of leaves,Sphaerotheca fuliginea; [12],46 and 39
same,Disease severity 3: number of leaves,Sphaerotheca fuliginea; [12],1
same,Disease severity 4: number of leaves,Sphaerotheca fuliginea; [12],0
same,"D.D.S (Degree of disease severity), Av",Sphaerotheca fuliginea; 50000 ppm,1.25
same,"P.V. (Preventive value), Av",Sphaerotheca fuliginea; 50000 ppm,98.7
same,"n/N × 100, Av",Sphaerotheca fuliginea; 50000 ppm,5.0
same,D.D.S (Degree of disease severity),"Sphaerotheca fuliginea; 50000 ppm, per plot (1, 2)",1.00 and 1.50
same,P.V. (Preventive value),"Sphaerotheca fuliginea; 50000 ppm, per plot (1, 2)",99.0 and 98.4
same,n/N × 100,"Sphaerotheca fuliginea; 50000 ppm, per plot (1, 2)",4.0 and 6.0
same,Disease severity 0: number of leaves,Sphaerotheca fuliginea; [13],48 and 47
same,Disease severity 1: number of leaves,Sphaerotheca fuliginea; [13],2 and 3
same,Disease severity 2: number of leaves,Sphaerotheca fuliginea; [13],0
same,Disease severity 3: number of leaves,Sphaerotheca fuliginea; [13],0
same,Disease severity 4: number of leaves,Sphaerotheca fuliginea; [13],0
same,effectiveness in words,Sphaerotheca fuliginea; field test,effective enough
same,Preventive value,[1]; 1000 ppm,0.0
same,Preventive value,[1]; 5000 ppm,8.3
same,Preventive value,[1]; 10000 ppm,98.3
same,Preventive value,[1]; 50000 ppm,100.0
same,pest or weed control at 5000 ppm,[2],40%
same,pest or weed control at 10000 ppm,[2],83%
same,pest or weed control at 5000 ppm,Plasmopara viticola [3],17%
same,pest or weed control at 10000 ppm,Plasmopara viticola [3],67%
same,"D.D.S (Degree of disease severity), Av",[4]; 10000 ppm,2.25
same,"P.V. (Preventive value), Av",[4]; 10000 ppm,96.5
same,"n/N × 100, Av",[4]; 10000 ppm,9.0
same,D.D.S (Degree of disease severity),[4]; 10000 ppm,3.00 and 1.50
same,P.V. (Preventive value),[4]; 10000 ppm,95.4 and 97.7
same,n/N × 100,[4]; 10000 ppm,12.0 and 6.0
same,Disease severity 0: number of leaves,[4]; 10000 ppm,44 and 47
same,Disease severity 1: number of leaves,[4]; 10000 ppm,6 and 3
same,Disease severity 2: number of leaves,[4]; 10000 ppm,0
same,Disease severity 3: number of leaves,[4]; 10000 ppm,0
same,Disease severity 4: number of leaves,[4]; 10000 ppm,0
same,"D.D.S (Degree of disease severity), Av",[4]; 50000 ppm,2.50
same,"P.V. (Preventive value), Av",[4]; 50000 ppm,96.1
same,"n/N × 100, Av",[4]; 50000 ppm,10.0
same,D.D.S (Degree of disease severity),[4]; 50000 ppm,3.00 and 2.00
same,P.V. (Preventive value),[4]; 50000 ppm,95.4 and 96.9
same,n/N × 100,[4]; 50000 ppm,12.0 and 8.0
same,Disease severity 0: number of leaves,[4]; 50000 ppm,44 and 46
same,Disease severity 1: number of leaves,[4]; 50000 ppm,6 and 4
same,Disease severity 2: number of leaves,[4]; 50000 ppm,0
same,Disease severity 3: number of leaves,[4]; 50000 ppm,0
same,Disease severity 4: number of leaves,[4]; 50000 ppm,0
same,effectiveness in words,[4]; field test,effective enough
same,Preventive value,Pythium glaminicola; 10000 ppm,77.3
same,Preventive value,Pythium glaminicola; 50000 ppm,96.2
same,effectiveness in words,Pythium glaminicola; soil drench,effective enough
same,pest or weed control at 10000 ppm,Botrytis cinerea,0%
same,pest or weed control at 50000 ppm,Botrytis cinerea,17%
same,pest or weed control at 5000 ppm,[5],33%
same,pest or weed control at 10000 ppm,[5],73%
same,"D.D.S (Degree of disease severity), Av",Plasmopara viticola [6]; 10000 ppm,12.75
same,"P.V. (Preventive value), Av",Plasmopara viticola [6]; 10000 ppm,71.7
same,"n/N × 100, Av",Plasmopara viticola [6]; 10000 ppm,31.0
same,D.D.S (Degree of disease severity),"Plasmopara viticola [6]; 10000 ppm, per plot (1-3)",14.50 and 18.50 and 11.00
same,P.V. (Preventive value),"Plasmopara viticola [6]; 10000 ppm, per plot (1-3)",72.0 and 64.3 and 78.7
same,n/N × 100,"Plasmopara viticola [6]; 10000 ppm, per plot (1-3)",36.0 and 32.0 and 26.0
same,Disease severity 0: number of leaves,Plasmopara viticola [6]; [14],32 and 34 and 37
same,Disease severity 1: number of leaves,Plasmopara viticola [6]; [14],8 and 4
same,"D.D.S (Degree of disease severity), Av",Plasmopara viticola [6]; 50000 ppm,0.00
same,"P.V. (Preventive value), Av",Plasmopara viticola [6]; 50000 ppm,99.4
same,"n/N × 100, Av",Plasmopara viticola [6]; 50000 ppm,0.0
same,P.V. (Preventive value),"Plasmopara viticola [6]; 50000 ppm, per plot (1-3)",100.0 and 93.1
same,Disease severity 0: number of leaves,Plasmopara viticola [6]; [15],50 and 48
same,Disease severity 2: number of leaves,Plasmopara viticola [6]; [15],0
same,Disease severity 3: number of leaves,Plasmopara viticola [6]; [15],0
same,Disease severity 4: number of leaves,Plasmopara viticola [6]; [15],0
same,effectiveness in words,Plasmopara viticola [6]; field test,effective enough
same,Preventive value,Pythium aphanidermatum; 10000 ppm,70.0
same,Preventive value,Pythium aphanidermatum; 50000 ppm,92.5
same,effectiveness in words,Pythium aphanidermatum; soil drench,effective enough
same,Preventive value (3 DAS),[7]; 5000 ppm spray,49.2
same,Preventive value (5 DAS),[7]; 5000 ppm spray,37.5
same,Preventive value (3 DAS),[7]; 10000 ppm spray,99.2
same,Preventive value (5 DAS),[7]; 10000 ppm spray,90.0
same,Preventive value (5 DAS),"[7]; 10000 ppm spray, listed as D-tagatose",90
same,Preventive value (3 DAS),[7]; 50000 ppm spray,100.0
same,Preventive value (3 DAS),[7]; [16],100
same,Preventive value (5 DAS),[7]; 50000 ppm spray,100.0
same,Preventive value (5 DAS),[7]; [16],100
same,Preventive value,Sphaerotheca fuligine; 10000 ppm spray,20.0
same,Preventive value,Sphaerotheca fuligine; 50000 ppm spray,87.5
same,effectiveness in words,Sphaerotheca fuligine; foliar spray,effective enough
same,pest or weed control at 5000 ppm,Phytophthora infestans [8],0%
same,pest or weed control at 10000 ppm,Phytophthora infestans [8],40%
same,pest or weed control at 10000 ppm,Pyricularia oryze,0%
same,pest or weed control at 50000 ppm,Pyricularia oryze,50%
same,pest or weed control at 5000 ppm,[9],50%
same,pest or weed control at 10000 ppm,[9],73%
same,Preventive value,Phytophthora infestans [10]; 50000 ppm spray,28.3
same,Preventive value,Phytophthora infestans [10]; 100000 ppm spray,58.3
same,effectiveness in words,Phytophthora infestans [10]; foliar spray,effective enough

# Reference: patent publication US20110281807A1, “PLANT DISEASE CONTROL AGENT COMPRISING D-TAGATOSE AS ACTIVE INGREDIENT, AND PLANT DISEASE CONTROL METHOD” (NATIONAL UNIVERSITY CORPORATION KAGAWA UNIVERSITY, priority 2008, published 2011)
